Laboratory results published in paper PMC9658216, “Topical Administration of a Novel Acetylated Tetrapeptide Suppresses Vascular Permeability and Immune Responses and Alleviates Atopic Dermatitis in a Murine Model” (International Journal of Molecular Sciences, 2022).

Experiments:
IgE = test: Plasma IgE ELISA; format: in vivo, mouse; conditions: Day 48, topical application, versus vehicle-treated group, n = 10
Description: (§1) To induce experimental AD-like skin lesions in mouse, we used cutaneous Biostir-AD for challenging NC/Nga mice, according to the manufacturer’s instructions. After 1 week of acclimation, AD was induced. Briefly, the dorsal part of each mouse was shaved with an electric shaver, and then the remaining hair was removed using a depilatory cream. Twice weekly for three weeks, growing hair was shaved with the electric shaver, followed by application of 150 μL of 4% sodium dodecyl sulfate to the treated area (barrier disruption). Biostir-AD (200 mg/mouse) was applied 3 h after barrier disruption. […] The concentration of Ac-RLYE used in the present study was determined based on the results of previous preliminary experiments (unpublished data). […]
The blood samples were drawn from mice, and the plasma was separated by centrifugation at 10,000× g for 10 min at 4 °C and stored at −80 °C until tested. The plasma level of IgE was measured by ELISA according to the manufacturer’s instructions (Mouse IgE ELISA Kit, Abcam, Cambridge, UK).

NC/Nga mice [1] = test: Ear thickness in HDM-induced AD model; format: in vivo, mouse; conditions: n = 10
Description: To induce experimental AD-like skin lesions in mouse, we used cutaneous Biostir-AD for challenging NC/Nga mice, according to the manufacturer’s instructions. After 1 week of acclimation, AD was induced. Briefly, the dorsal part of each mouse was shaved with an electric shaver, and then the remaining hair was removed using a depilatory cream. Twice weekly for three weeks, growing hair was shaved with the electric shaver, followed by application of 150 μL of 4% sodium dodecyl sulfate to the treated area (barrier disruption). Biostir-AD (200 mg/mouse) was applied 3 h after barrier disruption. Fifty mice were divided into five groups of five mice per cage (n = 10 per group): group 1, control (Biostir-AD + vehicle (distilled water only)); group 2, 0.1% tacrolimus (Biostir-AD + Protopic (positive control)); group 3, 0.004% Ac-RLYE (Biostir-AD + 0.004% Ac-RLYE in distilled water); group 4, 0.02% Ac-RLYE (Biostir-AD + 0.02% Ac-RLYE in distilled water); and group 5, 0.1% Ac-RLYE (Biostir-AD + 0.1% Ac-RLYE in distilled water). Ac-RLYE or 0.1% tacrolimus (100 μL/mouse) was applied daily for 4 weeks. The concentration of Ac-RLYE used in the present study was determined based on the results of previous preliminary experiments (unpublished data). […]
Ear thickness was measured on the first day of Ac-RLYE application and then once a week using calipers.

NC/Nga mice [2] = test: Histological analysis (H&E) of AD-like skin lesions; format: in vivo, mouse; conditions: n = 10
Description: as §1
(§2) The dorsal skin tissues were isolated, fixed in 10% formalin immediately after excision from the mice, and embedded in paraffin. […] Skin samples were observed and measured with an Olympus BX53 light microscope (Olympus Corporation, Tokyo, Japan). From the histopathological findings, the severity of skin manifestations was assessed on the epidermis (hypertrophy, hyperkeratosis, and infiltration by inflammatory cells) and on the dermis (infiltration by inflammatory cells) and was expressed as the sum of the individual score grades from 0 to 3 (0, no symptoms; 1, mild; 2, moderate; 3, severe), as described previously. […]

NC/Nga mice [3] = test: Differential cell counting of blood; format: in vivo, mouse; conditions: differential counting at Day 48; versus vehicle-treated control; n = 10
Description: (§3) To induce experimental AD-like skin lesions in mouse, we used cutaneous Biostir-AD for challenging NC/Nga mice, according to the manufacturer’s instructions. After 1 week of acclimation, AD was induced. Briefly, the dorsal part of each mouse was shaved with an electric shaver, and then the remaining hair was removed using a depilatory cream. Twice weekly for three weeks, growing hair was shaved with the electric shaver, followed by application of 150 μL of 4% sodium dodecyl sulfate to the treated area (barrier disruption). Biostir-AD (200 mg/mouse) was applied 3 h after barrier disruption. Fifty mice were divided into five groups of five mice per cage (n = 10 per group): group 1, control (Biostir-AD + vehicle (distilled water only)); group 2, 0.1% tacrolimus (Biostir-AD + Protopic (positive control)); group 3, 0.004% Ac-RLYE (Biostir-AD + 0.004% Ac-RLYE in distilled water); group 4, 0.02% Ac-RLYE (Biostir-AD + 0.02% Ac-RLYE in distilled water); and group 5, 0.1% Ac-RLYE (Biostir-AD + 0.1% Ac-RLYE in distilled water). Ac-RLYE or 0.1% tacrolimus (100 μL/mouse) was applied daily for 4 weeks. The concentration of Ac-RLYE used in the present study was determined based on the results of previous preliminary experiments (unpublished data). The mice were sacrificed after 4 weeks of Ac-RLYE treatment (Figure 2A, on Day 48).
Whole blood samples were collected from the mice and used for analysis. […]

HUVECs = test: Immunofluorescence of ZO-1 and VE-cadherin junctions in VEGF-A-stimulated HUVECs; format: cell-based, human; conditions: HUVECs pre-treated 30 min with 0.15 nM Ac-RLYE, then 10 ng/mL VEGF-A for 1 h; confocal immunofluorescence, Image J; n = 3
Description: Figure 1 Ac-RLYE inhibits VEGF-A-induced junctional integrity loss in HUVECs. Cells were pre-treated for 30 min with Ac-RLYE (0.15 nM) followed by stimulation with 10 ng/mL VEGF-A (V) for 1 h. (A) Confocal images of ZO-1 and VE-cadherin. (B) Quantification of ZO-1 and VE-cadherin at contact sites between endothelial cells (n = 3). Data are represented as mean ± SD values. *** p < 0.001.
Collagenase type II (Worthington Biochemical Corporation, Lakewood, NJ) was used to isolate human umbilical vein endothelial cells (HUVECs) from umbilical cord veins. The cells were cultured on gelatin-coated plates in Medium 199 supplemented with 20% FBS, 100 U/mL penicillin–streptomycin, 3 ng/mL bFGF, and 5 U/mL heparin. Trypsinization was used to collect the cells (up to passage 7), which were then used for assays.
HUVECs were grown as a monolayer on 2% gelatin-coated cover glasses and cultured in M199 medium containing 1% FBS. The cells were pretreated with 0.15 nM Ac-RLYE for 30 min and stimulated with 10 ng/mL VEGF-A for 1 h. […] The levels of VE-cadherin and ZO-1 were quantified using Image J software.

filaggrin (FLG) = test: Skin filaggrin (FLG) ELISA; format: in vivo, mouse; conditions: n = 10; for FLG level in dorsal skin: mean ± SD
Description: as §3, with “48). The dorsal skin was collected from mice after 4 weeks of Ac-RLYE or tacrolimus treatment and stored at −80 °C until use. The dorsal skin tissues were homogenized in RIPA lysis buffer containing a protease inhibitor and a phosphatase inhibitor and centrifuged at 13,000 rpm for 10 min at 4 °C. The supernatant was collected for a protein assay using a Pierce™ BCA Protein Assay Kit (Thermo Fisher Scientific, Inc., Waltham, MA, USA). The level of FLG in mouse skin tissue was quantified using an ELISA kit (MyBioSource, Inc., San Diego, CA, USA) in accordance with the manufacturer’s instructions.” for “48).”

NC/Nga mice [4] = test: Dermatitis severity score in HDM (Biostir-AD)-induced AD-like skin lesions; format: in vivo; conditions: topical 100 μL/mouse daily for 4 weeks, Day 48, mean ± SD, n = 10
Description: as §3, with “48). The severity of the dermatitis was measured macroscopically and scored once a week by using a previously established method based on the clinical signs and symptoms of AD, namely, erythema (hemorrhage), edema, excoriation (erosion), and scaling (dryness). The total dermatitis severity score was defined as the sum of the component scores (0, no symptoms; 1, mild; 2, moderate; 3, severe) for each mouse, ranging from 0 to 12.” for “48).”

NC/Nga mice [5] = test: Mast cell infiltration (toluidine blue staining); format: in vivo, mouse; conditions: Day 48, versus vehicle-treated group, n = 10
Description: as §1, §2

[6] = system: Th1, Th2 and Th17 cytokines; test: qRT-PCR of cytokine mRNA in AD-like skin lesions; format: in vivo, mouse; conditions: skin at Day 48, normalized to GAPDH, versus vehicle, n = 10
Description: as §3
Both the ear and dorsal skin of each mouse were excised using a surgical knife, pooled, and used for RNA isolation. Total RNA was prepared using an RNA isolation kit (GeneAll® Hybrid-R™, GeneAll, Korea) following the manufacturer’s instructions. RNA was quantified using a BioTek Take3^TM Multi-Volume plate (Agilent BioTek Instruments, Winooski, VT, USA). An equal amount of total RNA was reverse-transcribed using ReverTra Ace™ qPCR RT Master Mix with gDNA Remover (Toyobo CO., LTD., Osaka, Japan) according to the manufacturer’s instructions. Real time-PCR was performed on a CFX96™ Touch Real-Time PCR System (Bio-Rad, Hercules, CA) using TB Green® Premix Ex Taq™ (Takara, Shiga, Japan). Quantification of the target gene expression was determined by the comparative […] method. The relative expression levels were determined by normalizing expression to glyceraldehyde 3-phosphate dehydrogenase (GAPDH). The level of each target gene was expressed as the relative fold change.

| Compound | Plasma IgE (IgE) | Effect on ear thickness compared with tacrolimus (NC/Nga mice [1]; doses above 0.02%, Day 48) | Increase in ear thickness after HDM (NC/Nga mice [1]; topical 0.004-0.1% once daily for 4 weeks, dose-dependent, versus vehicle) | Infiltration of inflammatory cells in epidermis and dermis (NC/Nga mice [2]; Day 48, all Ac-RLYE-treated groups versus vehicle-treated HDM group) | Scores of hypertrophy and hyperkeratosis in epidermis (NC/Nga mice [2]; Day 48, versus vehicle-treated HDM group) | Number of leukocytes, neutrophils and eosinophils in blood (NC/Nga mice [3]) | VEGF-induced cellular junction disruption (ZO-1 and VE-cadherin at cell-cell contact sites) (HUVECs) | FLG level in dorsal skin (filaggrin (FLG); 0.1% Ac-RLYE topical daily for 4 weeks) [pg/mL] | Protein level of FLG versus vehicle-treated AD group (filaggrin (FLG); Ac-RLYE groups 0.004-0.1%, dose-dependent) | Dermatitis score (sum of erythema, edema, excoriation, scaling; 0-12) (NC/Nga mice [4]; 0.004% in distilled water) | Dermatitis score (sum of erythema, edema, excoriation, scaling; 0-12) (NC/Nga mice [4]; 0.02% in distilled water) | Dermatitis score (sum of erythema, edema, excoriation, scaling; 0-12) (NC/Nga mice [4]; 0.1% in distilled water) | Accumulation of mast cells in AD-like skin lesion (NC/Nga mice [5]) | Expression of IFN-γ [6] | Expression of IL-17A (Th17 cytokine) [6] | Expression of Th1 cytokines IL-23 and TNF-α [6] | mRNA levels of Th2-type cytokines IL-4, IL-13, IL-31 and Th2 chemokine CCL17 [6] | FLG level in dorsal skin (filaggrin (FLG); 0.1% tacrolimus ointment topical daily for 4 weeks) [pg/mL] | Dermatitis score (sum of erythema, edema, excoriation, scaling; 0-12) (NC/Nga mice [4]; 0.1% tacrolimus ointment (Protopic)) |
| --- | --- | --- | --- | --- | --- | --- | --- | --- | --- | --- | --- | --- | --- | --- | --- | --- | --- | --- | --- |
| N-acetyl-Arg-Leu-Tyr-Glu [Ac-RLYE] | significantly lowered | slightly better than that of tacrolimus | significantly attenuated | less infiltration | decreased | dose-dependently lowered | significantly attenuated | 1469.4 ± 105.2 | significantly restored | 7.4 ± 0.8 | 5.8 ± 2.3 | 4.5 ± 2.4 | reduced | increased | suppressed | inhibited | remarkably inhibited | – | – |
| C=CC[C@@H]1/C=C(\C)C[C@H](C)C[C@H](OC)[C@H]2O[C@@](O)(C(=O)C(=O)N3CCCC[C@H]3C(=O)O[C@H](/C(C)=C/[C@@H]3CC[C@@H](O)[C@H](OC)C3)[C@H](C)[C@@H](O)CC1=O)[C@H](C)C[C@@H]2OC [tacrolimus, reference compound] | – | – | – | – | – | – | – | – | – | – | – | – | – | – | – | – | – | 1444.8 ± 110.5 | 4.5 ± 2.4 |
